Measured values published in US20100068204A1, “4-ARYLOXYQUINOLIN-2(1H)-ONES AS MTOR KINASE AND PI3 KINASE INHIBITORS, FOR USE AS ANTI-CANCER AGENTS” (Wyeth, priority 2008, published 2010).

Tests used:
[1] = test system: LNCap prostate tumor cells; assay: In vitro cell growth assay (MTS), LNCap; type: cell-based, human; settings: three days after drug treatment
Experimental: (§1) Cell lines used were human adenocarcinoma (LoVo), […], prostate (LNCap), breast (MDA468, MCF7), colon (HCT116), renal (HTB44 A498), and ovarian (OVCAR3) tumor cell lines. The tumor cells were plated in 96-well culture plates at approximately 3000 cells per well. One day following plating, various concentrations of inhibitors in DMSO were added to cells (final DMSO concentration in cell assays was 0.25%). Three days after drug treatment, viable cell densities were determined by cell mediated metabolic conversion of the dye MTS, a well-established indicator of cell proliferation in vitro. Cell growth assays were performed using kits purchased from Promega Corporation (Madison, Wis.), following the protocol provided by the vendor. Measuring absorbance at 490 nm generated MTS assay results. Compound effect on cell proliferation was assessed relative to untreated control cell growth.

human TOR (FLAG-TOR) = human TOR (FLAG-TOR) (Homo sapiens, UniProt P42345); assay: mTOR enzyme assay (DELFIA format, purified enzyme); type: biochemical; settings: 800 ng/ml FLAG-TOR, 100 μM ATP, 1.25 μM His6-S6K; read-out: mTOR Kinase IC50
PI3Kα = PI3Kα (Homo sapiens, UniProt P42336); assay: PI3Kα fluorescence polarization assay; type: biochemical; settings: 20 μM PIP2, 25 μM ATP
PI3Kα, sequence (P42336 whole entry, species assumed): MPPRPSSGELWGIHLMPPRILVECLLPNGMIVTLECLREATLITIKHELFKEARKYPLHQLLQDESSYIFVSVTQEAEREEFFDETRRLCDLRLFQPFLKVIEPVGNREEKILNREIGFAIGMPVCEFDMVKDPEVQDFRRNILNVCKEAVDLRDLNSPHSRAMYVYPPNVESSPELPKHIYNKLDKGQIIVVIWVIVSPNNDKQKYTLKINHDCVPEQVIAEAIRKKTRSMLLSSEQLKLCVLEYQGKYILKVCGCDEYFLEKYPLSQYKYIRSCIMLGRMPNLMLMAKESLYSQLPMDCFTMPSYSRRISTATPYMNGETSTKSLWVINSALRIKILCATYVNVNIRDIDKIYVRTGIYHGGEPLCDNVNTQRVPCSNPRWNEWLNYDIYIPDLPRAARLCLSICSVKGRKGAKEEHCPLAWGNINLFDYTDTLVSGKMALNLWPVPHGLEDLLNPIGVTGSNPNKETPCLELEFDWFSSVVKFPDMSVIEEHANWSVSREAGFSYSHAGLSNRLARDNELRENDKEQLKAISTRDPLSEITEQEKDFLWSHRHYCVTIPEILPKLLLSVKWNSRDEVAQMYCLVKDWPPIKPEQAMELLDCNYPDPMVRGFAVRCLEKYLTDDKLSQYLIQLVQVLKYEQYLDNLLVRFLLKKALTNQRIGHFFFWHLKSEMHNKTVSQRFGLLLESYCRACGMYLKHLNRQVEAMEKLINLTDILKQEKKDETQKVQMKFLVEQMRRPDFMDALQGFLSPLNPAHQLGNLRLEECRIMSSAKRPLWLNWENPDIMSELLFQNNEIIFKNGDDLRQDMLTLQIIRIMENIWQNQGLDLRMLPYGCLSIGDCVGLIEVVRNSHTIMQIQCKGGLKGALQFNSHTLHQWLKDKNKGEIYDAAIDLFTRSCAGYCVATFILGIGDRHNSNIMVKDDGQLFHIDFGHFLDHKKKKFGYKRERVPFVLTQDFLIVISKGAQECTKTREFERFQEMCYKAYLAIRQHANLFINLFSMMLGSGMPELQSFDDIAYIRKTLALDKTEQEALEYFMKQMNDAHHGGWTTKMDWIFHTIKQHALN
PI3Kα, sequence (P27986 whole entry partner, species assumed): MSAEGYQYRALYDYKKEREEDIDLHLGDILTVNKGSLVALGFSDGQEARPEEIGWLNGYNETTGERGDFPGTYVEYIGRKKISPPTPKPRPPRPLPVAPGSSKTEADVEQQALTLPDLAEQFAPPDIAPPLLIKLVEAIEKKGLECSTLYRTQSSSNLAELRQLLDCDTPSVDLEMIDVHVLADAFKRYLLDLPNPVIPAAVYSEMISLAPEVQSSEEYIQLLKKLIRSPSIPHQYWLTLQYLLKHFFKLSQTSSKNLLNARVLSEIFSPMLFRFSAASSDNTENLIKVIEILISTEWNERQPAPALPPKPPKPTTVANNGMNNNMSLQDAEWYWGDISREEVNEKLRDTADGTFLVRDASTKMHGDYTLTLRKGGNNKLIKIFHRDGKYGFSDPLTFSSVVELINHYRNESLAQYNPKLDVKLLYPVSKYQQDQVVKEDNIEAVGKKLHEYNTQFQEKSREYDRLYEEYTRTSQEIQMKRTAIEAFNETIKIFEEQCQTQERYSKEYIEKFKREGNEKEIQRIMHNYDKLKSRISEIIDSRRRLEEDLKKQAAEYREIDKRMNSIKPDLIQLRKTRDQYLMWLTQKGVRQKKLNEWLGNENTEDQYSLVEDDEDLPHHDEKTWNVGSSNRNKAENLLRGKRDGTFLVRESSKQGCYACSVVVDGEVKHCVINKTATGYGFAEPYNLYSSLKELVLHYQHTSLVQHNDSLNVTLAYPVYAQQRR
Experimental: The reaction buffer was 20 mM HEPES pH7.5, 2 mM MgCl2, 0.05% CHAPS, and 0.01% βME (added fresh). The substrate solution was 40 μM PIP2 (diC8, Echelon, Salt Lake City Utah cat #P-4508, 1 mM in water) and 50 μM ATP in the reaction buffer. Nunc 384-well black polypropylene fluorescent plates were used for PI3K assays. The assay is run by putting 9.5 μl of freshly diluted enzyme in the reaction buffer per well, adding 0.5 μl of diluted drug or DMSO, and mixing. Then 10 μl of the substrate solution is added to each well to start the reaction. A final concentration of 20 μM PIP2 and 25 μM ATP in the reaction was used. Reactions were allowed to proceed for 30-60 minutes at room temperature. After 30-60 minutes, 20 μl of a solution of 10 nM TAMRA detector (Red detector probe-Echelon) and 2.5 uM of GST-murine GRP (1.5 mg/ml in 17% glycerol) was added per well to stop the reaction. The resulting solution was mixed well and allowed to stand for 90-110 minutes before reading plate. Assay Plates were read on Perkin-Elmer Envision plate readers with appropriate filters for Tamra [BODIPY-TMRI(1,3,4,5)P4]. Data obtained were used to calculate enzymatic activity and enzyme inhibition by inhibitor compounds. It is important to keep Red probe solutions dark. This procedure is adapted from Echelon Biosciences Inc procedure for their PI3-Kinase fluorescence polarization activity Assay kit Product number K-1100.

[2] = test system: MDA468 breast tumor cells; assay: In vitro cell growth assay (MTS), MDA468; type: cell-based, human; settings: three days after drug treatment
Experimental: as §1

IC50 ([1]; Homo sapiens, LNCaP, 72 h) | IC50 (human TOR (FLAG-TOR)) | IC50 (PI3Kα) | IC50 ([2]; Homo sapiens, 72 h) | IC50 [1] | IC50 [2] | Structure (SMILES)
3.5 µM | 0.06 µM | 13 µM | 8 µM |  |  | O=c1cc(Oc2cccc(NCc3ccc(Cl)nc3)c2)c2ccccc2[nH]1
35 µM | 0.12 µM | > 10 µM |  |  |  | O=c1cc(Oc2cccc(NCc3ccsc3)c2)c2ccccc2[nH]1
4 µM | 0.07 µM | > 10 µM |  |  |  | Nc1ncccc1CNc1cccc(Oc2cc(=O)[nH]c3ccccc23)c1
4 µM | 0.08 µM | > 10 µM |  |  |  | O=c1cc(Oc2cccc(NCc3ccc(-n4ccnc4)cc3)c2)c2ccccc2[nH]1
60 µM |  | 3.94 µM | 60 µM |  |  | O=c1cc(Oc2ccccc2)c2cc(-c3ccncc3)ccc2[nH]1
9.3 µM | 0.3 µM | > 10 µM | 60 µM |  |  | COc1cccc(Oc2cc(=O)[nH]c3ccccc23)c1
 | > 20 µM | 0.308 µM |  |  |  | O=c1cc(Oc2ccccc2)c2ccc(Cl)cc2[nH]1
7.5 µM | 0.16 µM | 2.22 µM | 27 µM |  |  | Nc1ccc(Oc2cc(=O)[nH]c3ccccc23)cc1
 | 6 µM | 7.28 µM |  |  |  | CC(=O)Nc1ccc(Oc2cc(=O)[nH]c3ccccc23)cc1
 | 8.2 µM | 8.23 µM |  |  |  | O=c1cc(Oc2ccccc2)c2cc(-c3ccccc3)ccc2[nH]1
 | > 20 µM | > 10 µM |  |  |  | O=c1cc(Oc2ccccc2)c2cc(Br)ccc2[nH]1
> 60 µM | > 20 µM | 2.57 µM | > 60 µM |  |  | Nc1ccc2[nH]c(=O)cc(Oc3ccccc3)c2c1
7.5 µM | 16.5 µM | 1.17 µM | 27 µM |  |  | O=c1cc(Oc2ccccc2)c2cc(N3CCOCC3)ccc2[nH]1
> 60 µM | 7.3 µM | 6.96 µM | 4.5 µM |  |  | O=c1cc(Oc2ccccc2)c2cc(-c3ccoc3)ccc2[nH]1
> 60 µM | 2.2 µM | 4.11 µM | 50 µM |  |  | O=c1cc(Oc2ccc(Br)cc2)c2ccccc2[nH]1
8 µM | 2 µM | 7.91 µM | > 60 µM |  |  | Cc1ccccc1Oc1cc(=O)[nH]c2ccccc12
> 60 µM | 9.1 µM | 4.68 µM | > 60 µM |  |  | COc1ccccc1Oc1cc(=O)[nH]c2ccccc12
> 60 µM | > 20 µM | 5.39 µM | > 60 µM |  |  | O=c1cc(Oc2ccccc2)c2ccc(Br)cc2[nH]1
> 60 µM | > 20 µM | 0.938 µM | > 60 µM |  |  | O=c1cc(Oc2ccc(-c3ccccc3)cc2)c2ccccc2[nH]1
2.15 µM | 1.75 µM | 3.29 µM | 16.6 µM |  |  | O=c1cc(Oc2ccc(-c3cccnc3)cc2)c2ccccc2[nH]1
2 µM | > 20 µM | 0.778 µM | 60 µM |  |  | Nc1ccc(-c2ccc(Oc3cc(=O)[nH]c4ccccc34)cc2)cc1
> 60 µM | > 20 µM | 2.51 µM | > 60 µM |  |  | O=c1cc(Oc2ccc(-c3ccsc3)cc2)c2ccccc2[nH]1
> 60 µM | > 20 µM | > 10 µM | > 60 µM |  |  | CC(=O)Nc1ccc2[nH]c(=O)cc(Oc3ccccc3)c2c1
> 60 µM | > 20 µM | 1.94 µM | > 60 µM |  |  | O=c1cc(Oc2ccc(-c3ccoc3)cc2)c2ccccc2[nH]1
13 µM | 1.85 µM | 1.66 µM | > 60 µM |  |  | CC(=O)c1ccc(Oc2cc(=O)[nH]c3ccccc23)cc1
5.5 µM | 7.6 µM | 2.09 µM | 48 µM |  |  | N#Cc1ccc(Oc2cc(=O)[nH]c3ccccc23)cc1
> 60 µM | 0.96 µM | 2.48 µM | 49 µM |  |  | O=c1cc(Oc2ccc(Cl)cc2)c2ccccc2[nH]1

IC50 ([1]; Homo sapiens, LNCaP, 72 h) | IC50 (human TOR (FLAG-TOR)) | IC50 (PI3Kα) | IC50 ([2]; Homo sapiens, 72 h) | IC50 [1] | IC50 [2] | Structure (SMILES)
> 60 µM | 19 µM | 0.375 µM | > 60 µM |  |  | O=c1cc(Oc2ccccc2)c2cc(-c3cn[nH]c3)ccc2[nH]1
> 60 µM | 1.35 µM | 8.69 µM | > 60 µM |  |  | O=c1cc(Oc2cccc(C(F)(F)F)c2)c2ccccc2[nH]1
> 60 µM | > 20 µM | > 10 µM | > 60 µM |  |  | O=c1cc(Oc2ccc(OC(F)(F)F)cc2)c2ccccc2[nH]1
4.2 µM | 0.3 µM | 5.8 µM | 22 µM |  |  | N#CCc1cccc(Oc2cc(=O)[nH]c3ccccc23)c1
7 µM | 0.95 µM | 8 µM | 40 µM |  |  | O=c1cc(Oc2ccccc2Br)c2ccccc2[nH]1
7 µM | 0.75 µM | 8 µM | 60 µM |  |  | O=c1cc(Oc2cccc(OC(F)(F)F)c2)c2ccccc2[nH]1
> 60 µM | > 20 µM | 2.31 µM | > 60 µM |  |  | O=c1cc(Oc2ccc(C(F)(F)F)cc2)c2ccccc2[nH]1
7 µM | 0.43 µM | 3.66 µM | 20 µM |  |  | O=c1cc(Oc2cccc(-c3cccnc3)c2)c2ccccc2[nH]1
2.5 µM | 0.15 µM | 0.106 µM | 28 µM |  |  | Nc1cccc(Oc2cc(=O)[nH]c3ccccc23)c1
6.2 µM | 0.35 µM | 4.32 µM | 0.3 µM |  |  | O=c1cc(Oc2cccc(-c3ccoc3)c2)c2ccccc2[nH]1
30 µM | 0.63 µM | 0.63 µM | 60 µM |  |  | O=c1cc(Oc2cccc(-c3ccsc3)c2)c2ccccc2[nH]1
1.3 µM | 1.98 µM | 2.28 µM | > 60 µM |  |  | Cn1cc(-c2ccc(Oc3cc(=O)[nH]c4ccccc34)cc2)cn1
60 µM | 0.11 µM | > 10 µM | > 60 µM |  |  | O=c1cc(Oc2cccc(Br)c2)c2ccccc2[nH]1
8 µM | 0.3 µM | 3.9 µM | 2.9 µM |  |  | O=c1cc(Oc2cccc(-c3cn[nH]c3)c2)c2ccccc2[nH]1
> 60 µM | 0.18 µM | > 10 µM | 60 µM |  |  | Cn1cc(-c2cccc(Oc3cc(=O)[nH]c4ccccc34)c2)cn1
17 µM | 0.63 µM | > 10 µM | 60 µM |  |  | O=c1cc(Oc2cccc(-c3ccccc3)c2)c2ccccc2[nH]1
6 µM | 0.14 µM | 3.78 µM |  |  |  | O=c1cc(Oc2cccc(NCc3ccccc3)c2)c2ccccc2[nH]1
5 µM | 0.13 µM | 11 µM |  |  |  | COC[C@@H]1CCCN1CCNc1ccc(-c2cccc(Oc3cc(=O)[nH]c4ccccc34)c2)cc1
7 µM | 0.72 µM |  | 10.5 µM |  |  | CN(C)CCCN1CCN(c2cccc(Oc3cc(=O)[nH]c4ccccc34)c2)CC1
4.2 µM | 0.16 µM |  | 10 µM |  |  | CC(C)(C)CNc1ncccc1CNc1cccc(Oc2cc(=O)[nH]c3ccccc23)c1
12 µM | 0.42 µM |  | 60 µM |  |  | CC(C)(C)OC(=O)Nc1ccc(CNc2cccc(Oc3cc(=O)[nH]c4ccccc34)c2)cn1
 |  | 9.54 µM |  | 4 µM | 11 µM | O=c1cc(Oc2cccc(NCc3ccc(F)nc3)c2)c2ccccc2[nH]1 [drawing 208]
 |  |  |  | 13 µM | 50 µM | O=c1cc(Oc2cccc(NCc3ccc(F)nc3)c2)c2ccccc2[nH]1 [drawing 218]
> 60 µM |  | 4.15 µM | > 60 µM |  |  | O=c1cc(Oc2cccc(OCc3ccccc3)c2)c2ccccc2[nH]1 [drawing 351]
0.62 µM | 0.37 µM | 10.3 µM |  |  |  | CN1CCN(c2cccc(Oc3cc(=O)[nH]c4ccccc34)c2)CC1 [drawing 359]
> 60 µM | 9.7 µM | 8.74 µM |  |  |  | O=c1cc(Oc2ccccn2)c2ccccc2[nH]1 [drawing 389]

Structure (SMILES) | IC50 ([1]; Homo sapiens, LNCaP, 72 h) | IC50 (human TOR (FLAG-TOR)) | IC50 (PI3Kα) | IC50 ([2]; Homo sapiens, 72 h) | IC50 [1] | IC50 [2]
CN1CCC(N(C)c2cccc(-c3cccc(Oc4cc(=O)[nH]c5ccccc45)c3)c2)CC1 | 3 µM | 0.33 µM | 8.31 µM |  |  | 
